The conditions of series [1]: human skin treated with radiolabeled tioconazole; frozen section autoradiography. An excerpt: This property is readily measurable by methods known to those skilled in the art such as, for example, skin layer analysis which measures the amount of radiolabeled drug, e.g. tioconazole, in human skin treated with compositions containing the drug. [[…] et al., Brit. J. Dermatol. 115, Suppl. 31, 36-40 (1986)].

The test system of a further series is P. acnes. The series is described as follows: microbe, parasite or virus in culture. The note with it: Cutibacterium acnes, read-out: average minimum inhibitory concentration (MIC).

≈ marks a conversion by molar mass, not a printed value.

In the case of `Clc1ccc(C(Cn2ccnc2)OCc2ccsc2Cl)c(Cl)c1` (centres unmarked) [Tioconazole, 1-[2-[(2-chloro-3-thienyl)methoxy]-2-(2,4-dichlorophenyl)ethyl]-1H-imidazole], in series [1], the localization in skin result was “localized in the sebaceous follicle”. Also, the MIC in the series with P. acnes was 5 µg/mL (≈ 12.9 µM).

(Values after patent publication EP0270316A2, “Topical compositions comprising 1-substituted imidazoles and NSAIDs for treatment of acne” (PFIZER INC., priority 1986, dated 1988).)
